Measurements as given in patent US20250215039A1, “NUCLEOSIDES FOR TREATING CANCER” (PRIMEFOUR THERAPEUTICS, INC., priority 2022, published 2025).
Read-outs that look alike come from different tables or passages of the source.

Key:
cancer cell lines = test: Cancer cell proliferation activity (CellTiterGlo, 72 h); format: cell-based; conditions: for IC50: 72 h, read-out: IC50
Procedure, shortened: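 Cells seeded overnight at 37 °C, then dosed with compound at 0.1% final DMSO and incubated 72 h at 37 °C (5% or 10% CO2 by medium).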

[1] = target: human cytidine deaminase (CDA) (Homo sapiens, UniProt P32320); test: Metabolism by human cytidine deaminase (CDA), substrate absorbance at 290 nm; conditions: 12 nM CDA, 50 and 200 uM substrate, 37° C., pH 7.5; figure legends FIG. 4-9
Sequence of human cytidine deaminase (CDA) (P32320 whole entry): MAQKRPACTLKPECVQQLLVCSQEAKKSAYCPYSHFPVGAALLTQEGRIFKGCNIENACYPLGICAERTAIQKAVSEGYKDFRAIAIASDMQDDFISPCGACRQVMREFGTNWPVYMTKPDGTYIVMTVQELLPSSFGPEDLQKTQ

- IC50 (cancer cell lines; 5637 cell line (bladder)): 30 nM
- IC50 (cancer cell lines; CLS439 cell line (bladder)): 17600 nM
- IC50 (cancer cell lines; HS729 cell line (muscle)): 1410 nM
- IC50 (cancer cell lines; JAR cell line (placenta)): > 50000 nM
- IC50 (cancer cell lines; U20S cell line, bone): > 50000 nM
- IC50 (cancer cell lines; Homo sapiens, 22Rv1, 72 h, 22RV1 cell line (prostate)): 400 nM
- IC50 (cancer cell lines; Homo sapiens, 786-0, 72 h, 786O cell line (kidney)): > 50000 nM
- IC50 (cancer cell lines; Homo sapiens, A204, 72 h, A204 cell line (muscle)): 140 nM
- IC50 (cancer cell lines; Homo sapiens, A549, 72 h, A549 cell line, lung): 240 nM
- IC50 (cancer cell lines; Homo sapiens, A673, 72 h, A673 cell line (bone)): 510 nM
- IC50 (cancer cell lines; Homo sapiens, A2780, 72 h, A2780 cell line (ovary)): 680 nM
- IC50 (cancer cell lines; Homo sapiens, A-375, 72 h, A375 cell line (skin)): 730 nM
- IC50 (cancer cell lines; Homo sapiens, A-431, 72 h, A431 cell line (skin)): 40 nM
- IC50 (cancer cell lines; Homo sapiens, ACHN, ACHN cell line (kidney)): 50 nM
- IC50 (cancer cell lines; Homo sapiens, ASPC1, 72 h, ASPC1 cell line (pancreas)): 10 nM
- IC50 (cancer cell lines; Homo sapiens, BT-20, 72 h, BT20 cell line (breast)): > 50000 nM
- IC50 (cancer cell lines; Homo sapiens, BXPC-3, 72 h, BXPC3 cell line (pancreas)): 10 nM
- IC50 (cancer cell lines; Homo sapiens, C-33-A, C33A cell line, endometrial): 130 nM
- IC50 (cancer cell lines; Homo sapiens, CAKI-1, 72 h, CAKI1 cell line (kidney)): 400 nM
- IC50 (cancer cell lines; Homo sapiens, COLO 205, 72 h, COLO205 cell line (colon)): 60 nM
- IC50 (cancer cell lines; Homo sapiens, COLO-678, 72 h, COLO678 cell line (colon)): > 50000 nM
- IC50 (cancer cell lines; Homo sapiens, Ca-Ski, CASKI cell line, endometrial): 6170 nM
- IC50 (cancer cell lines; Homo sapiens, Caco-2, 72 h, CACO2 cell line (colon)): > 50000 nM
- IC50 (cancer cell lines; Homo sapiens, Calu-6, 72 h, CALU6 cell line (lung)): 250 nM
- IC50 (cancer cell lines; Homo sapiens, DLD-1, 72 h, DLD1 cell line (colon)): 3660 nM
- IC50 (cancer cell lines; Homo sapiens, DU-145, 72 h, DU145 cell line (prostate)): 1340 nM
- IC50 (cancer cell lines; Homo sapiens, EFO-21, 72 h, EFO21 cell line (ovary)): 3620 nM
- IC50 (cancer cell lines; Homo sapiens, EJ-28, 72 h, EJ28 cell line (bladder)): 190 nM
- IC50 (cancer cell lines; Homo sapiens, Granta-519, 72 h, GRANTA-519 cell line (hematological)): 30 nM
- IC50 (cancer cell lines; Homo sapiens, HCT-15, 72 h, HCT15 cell line (colon)): 1580 nM
- IC50 (cancer cell lines; Homo sapiens, HCT-116, 72 h, HCT116 cell line (colon)): 1180 nM
- IC50 (cancer cell lines; Homo sapiens, HEK293, 72 h, HEK293 cell line (kidney)): > 50000 nM
- IC50 (cancer cell lines; Homo sapiens, HL-60, 72 h, HL-60 cell line (hematological)): 810 nM
- IC50 (cancer cell lines; Homo sapiens, HT-29, 72 h, HT29 cell line (colon)): 160 nM
- IC50 (cancer cell lines; Homo sapiens, HT-1080, 72 h, HT1080 cell line (connective tissue)): 190 nM
- IC50 (cancer cell lines; Homo sapiens, HeLa, HELA cell line, endometrial): > 50000 nM
- IC50 (cancer cell lines; Homo sapiens, HepG2, 72 h, HEPG2 cell line (liver)): 540 nM
- IC50 (cancer cell lines; Homo sapiens, Hs-578T, HS578T cell line, breast): > 50000 nM
- IC50 (cancer cell lines; Homo sapiens, IGROV-1, 72 h, IGROV1 cell line (ovary)): 1650 nM
- IC50 (cancer cell lines; Homo sapiens, IMR-90, 72 h, IMR90 cell line, lung): > 50000 nM
- IC50 (cancer cell lines; Homo sapiens, J82, 72 h, J82 cell line (bladder)): 1080 nM
- IC50 (cancer cell lines; Homo sapiens, JEG-3, 72 h, JEG3 cell line (placenta)): 100 nM
- IC50 (cancer cell lines; Homo sapiens, JIMT-1, 72 h, JIMT1 cell line (breast)): 890 nM
- IC50 (cancer cell lines; Homo sapiens, K562, 72 h, K-562 cell line (hematological)): > 50000 nM
- IC50 (cancer cell lines; Homo sapiens, Kasumi 1, 72 h, KASUMI-1 cell line (hematological)): 400 nM
- IC50 (cancer cell lines; Homo sapiens, L-363, 72 h, L-363 cell line (hematological)): > 50000 nM
- IC50 (cancer cell lines; Homo sapiens, LoVo, LOVO cell line (colon)): 30 nM
- IC50 (cancer cell lines; Homo sapiens, MCF7, 72 h, MCF7 cell line (breast)): 1760 nM
- IC50 (cancer cell lines; Homo sapiens, MDA-MB-231, 72 h, MDAMB231 cell line (breast)): 370 nM
- IC50 (cancer cell lines; Homo sapiens, MDA-MB-435, 72 h, MDAMB435 cell line (skin)): 2520 nM
- IC50 (cancer cell lines; Homo sapiens, MDA-MB-436, 72 h, MDAMB436 cell line (breast)): 140 nM
- IC50 (cancer cell lines; Homo sapiens, MDA-MB-468, 72 h, MDAMB468 cell line (breast)): 770 nM
- IC50 (cancer cell lines; Homo sapiens, MG-63, 72 h, MG63 cell line (bone)): 680 nM
- IC50 (cancer cell lines; Homo sapiens, MHH-ES-1, 72 h, MHHES1 cell line (bone)): 1930 nM
- IC50 (cancer cell lines; Homo sapiens, MIA PaCa-2, 72 h, MIAPACA2 cell line (pancreas)): > 50000 nM
- IC50 (cancer cell lines; Homo sapiens, MINO, MINO cell line (hematological)): 10 nM
- IC50 (cancer cell lines; Homo sapiens, MV4-11, 72 h, MV4-11 cell line (hematological)): 140 nM
- IC50 (cancer cell lines; Homo sapiens, NCI-H23, 72 h, NCI-H23 cell line (lung)): 980 nM
- IC50 (cancer cell lines; Homo sapiens, NCI-H82, 72 h, NCIH82 cell line (lung)): 390 nM
- IC50 (cancer cell lines; Homo sapiens, NCI-H292, 72 h, NCIH292 cell line (lung)): > 50000 nM
- IC50 (cancer cell lines; Homo sapiens, NCI-H460, 72 h, NCIH460 cell line (lung)): 200 nM
- IC50 (cancer cell lines; Homo sapiens, OVCAR-3, 72 h, OVCAR3 cell line (ovary)): 3090 nM
- IC50 (cancer cell lines; Homo sapiens, OVCAR-4, 72 h, OVCAR4 cell line (ovary)): > 50000 nM
- IC50 (cancer cell lines; Homo sapiens, PANC-1, 72 h, PANC1 cell line (pancreas)): 1620 nM
- IC50 (cancer cell lines; Homo sapiens, PC-3, 72 h, PC3 cell line (prostate)): 2600 nM
- IC50 (cancer cell lines; Homo sapiens, PLC-PRF-5, 72 h, PLCPRF5 cell line (liver)): > 50000 nM
- IC50 (cancer cell lines; Homo sapiens, Panc1005, 72 h, PANC1005 cell line (pancreas)): > 50000 nM
- IC50 (cancer cell lines; Homo sapiens, RD, RD cell line (muscle)): 420 nM
- IC50 (cancer cell lines; Homo sapiens, Ramos, RAMOS cell line (hematological)): 160 nM
- IC50 (cancer cell lines; Homo sapiens, SAOS-2, 72 h, SAOS2 cell line (bone)): 90 nM
- IC50 (cancer cell lines; Homo sapiens, SF-268, 72 h, SF268 cell line (brain)): 220 nM
- IC50 (cancer cell lines; Homo sapiens, SF-295, 72 h, SF295 cell line (brain)): 3900 nM
- IC50 (cancer cell lines; Homo sapiens, SK-BR-3, 72 h, SKBR3 cell line (breast)): 30 nM
- IC50 (cancer cell lines; Homo sapiens, SK-HEP1, 72 h, SKHEP1 cell line (liver)): 770 nM
- IC50 (cancer cell lines; Homo sapiens, SK-LMS-1, 72 h, SKLMS1 cell line (uterus)): 1150 nM
- IC50 (cancer cell lines; Homo sapiens, SK-MEL-5, 72 h, SKMEL5 cell line, skin): > 50000 nM
- IC50 (cancer cell lines; Homo sapiens, SK-MEL-28, 72 h, SKMEL28 cell line (skin)): 2900 nM
- IC50 (cancer cell lines; Homo sapiens, SK-N-AS, SKNAS cell line (brain)): > 50000 nM
- IC50 (cancer cell lines; Homo sapiens, SK-N-SH, SKNSH cell line (brain)): > 50000 nM
- IC50 (cancer cell lines; Homo sapiens, SK-OV-3, 72 h, SKOV3 cell line (ovary)): 410 nM
- IC50 (cancer cell lines; Homo sapiens, SNB-75, 72 h, SNB75 cell line (brain)): 2820 nM
- IC50 (cancer cell lines; Homo sapiens, SU-DHL10, 72 h, SU-DHL-10 cell line (hematological)): 330 nM
- IC50 (cancer cell lines; Homo sapiens, SU-DHL-6, 72 h, SU-DHL-6 cell line (hematological)): 450 nM
- IC50 (cancer cell lines; Homo sapiens, SW-620, 72 h, SW620 cell line (colon)): 240 nM
- IC50 (cancer cell lines; Homo sapiens, T-24, 72 h, T24 cell line (bladder)): 400 nM
- IC50 (cancer cell lines; Homo sapiens, TE-671, 72 h, TE671 cell line (muscle)): 170 nM
- IC50 (cancer cell lines; Homo sapiens, THP-1, 72 h, THP-1 cell line (hematological)): 2140 nM
- IC50 (cancer cell lines; Homo sapiens, U-87 MG, U87MG cell line (brain)): 1870 nM
- IC50 (cancer cell lines; Homo sapiens, UMUC3, 72 h, UMUC3 cell line (bladder)): 1340 nM
- IC50 (cancer cell lines; Homo sapiens, UO-31, 72 h, UO31 cell line (kidney)): > 50000 nM
- IC50 (cancer cell lines; Homo sapiens, WSU-NHL, WSU-NHL cell line (hematological)): 380 nM
- IC50 (cancer cell lines; MT-3, 72 h, MT3 cell line (breast)): 60 nM
- IC50 (cancer cell lines; NCI-H358M, NCIH358M cell line (lung)): 70 nM
- IC50 (cancer cell lines; PBMC, PBMC (hematological)): 700 nM
- IC50 (cancer cell lines; RD-ES, RDES cell line (bone)): 6010 nM
Compound: C[C@]1(CO)O[C@@H](n2cc(F)c(N)nc2=O)C[C@@H]1O [Cpd. No. 4, 4-amino-5-fluoro-1-((2R,4S,5R)-4-hydroxy-5-(hydroxymethyl)-5-methyltetrahydrofuran-2-yl)pyrimidin-2(1H)-one]
- cytotoxicity against a panel of cell lines (waterfall plot) (cancer cell lines; panel of cancer and non-cancer cell lines, figure legends FIG. 1-3): selectively cytotoxic in cancer cell lines with high DDR activity
- metabolism (deamination) by human CDA (line graph) [1]: more stable than cytidine and gemcitabine
